Source: US11773146B2, “Disruption of the WAVE3 protein complex for suppression of invasion and metastasis” (UNIVERSITY OF GEORGIA RESEARCH FOUNDATION, INC., priority 2015, dated 2023)
Entries after “also recorded” stand apart in the source; their conditions may differ. Bridges are numbered along the chain shown (N, C = ends). Where no end group is shown, it is not given here. [ ]: non-standard residue; d: D form. S5 = C=CCCC[C@](C)(N)C(=O)O

What was measured:
[1] = test system: MDA-MB-231 cells; test: Transwell invasion assay (WANT peptides); format: cell-based; settings: for invasion potential: final concentration of 10 μM
From the text: There are currently no small molecules that target WASF3 function directly, but targeting the WRC may provide a means of suppressing invasion.

[2] = test system: MDA-MB-231 cells overexpressing NCKAP1; test: Transwell invasion assay in cells overexpressing NCKAP1; format: cell-based; settings: parental cells with empty vector and cells overexpressing NCKAP1
From the text: (§1) MDA-MB-231, Hs578T and T47D breast cancer cell lines were obtained directly from American Type Culture Collection (Rockville, Md.). MDA-MB-231 and T47D and have been verified using SNP-CGH (Teng Y, et al. Int J Cancer 2011 129:2825-2835) for characteristic cytogenetic changes. The ATCC Cell Authentication Testing service confirmed the identity of Hs578T using STR DNA fingerprinting analysis. Standard cell culture, transient transfections, RT-PCR, western blotting, immunoprecipitation (IP), flow cytometry, Biotin-Avidin pulldown, lentiviral transduction, cell proliferation and Transwell invasion assays were carried out as described previously (Teng Y, et al. Int J Cancer 2011 129:2825-2835; Teng Y, et al. J Biol Chem 2012 287:10051-10059; Teng Y, et al. Carcinogenesis 2013 34:1994-1999).
Lentiviral pCDH-CMV-MCS-EF1-PURO-HA-WASF3 (pCDH-HA-WASF3) was generated as described previously (Teng Y, et al. Carcinogenesis 2013 34:1994-1999). To construct the HA-NCKAP1 overexpression vector, the full-length human NCKAP1 was amplified from the template NCKAP1 cDNA clone (OriGene, Rockville, Md.) and was inserted into pCDHCMV-MCS-EF1-GFP lentiviral vector (System Biosciences, Mountain View, Calif.) as described previously (Teng Y, et al. Oncogene 2014 33:203-211). […]

[3] = test system: MDA-MB-231 and Hs578T cells; test: Transwell invasion assay with RAC1 inhibitor; format: cell-based; settings: dose-dependent treatment
From the text: as §1

[4] = test system: WASF3, NCKAP1 or RAC1; test: Western blot of protein levels with RAC1 inhibitor; format: cell-based; settings: MDA-MB-231 and Hs578T cells
From the text: as §1

[5] = molecular target: T1, CYFIP1 (Homo sapiens, UniProt Q7L576); test: Avidin-biotin pull down with biotinylated stapled peptides; format: binding; settings: biotinylated peptide 10 μM, MDA-MB-231 cells
T1 construct: endogenous in cells; host or cells: MDA-MB-231
Description: (§2) Immunoprecipitation assays were carried out as described previously (Sossey-Alaoui, K., et al. J. Biol. Chem. 82:26257-26265 (2007)). Specially, to determine the physical interaction with individual peptides, MDA-MB-231 cells were pretreated with 10 μM biotin-labeled peptides for 24 hours and lysates were incubated with immobilized avidin resin overnight at 4° C. The pull down samples were subjected to SDS-PAGE followed by Western blot analysis.
To determine whether the SPs formed a complex with WASF3 within the cells, MDA-MB-231 cells were exposed to biotinylated WAHM1 and WAHM2 for 6 hours, after which the cells were lysed and pull down assays were performed using avidin-coated beads.

[6] = test system: MDA-MB-231 and PC3 cells; test: Scratch wound assay; format: cell-based; settings: breast and prostate cell lines, versus DMSO and scrambled peptide
Description: (§3) Hs578T, MDA-MB-231, DU145 and PC3 cells were purchased from the American Type Culture Collection (ATCC) and maintained according to the supplier's instructions. Lentiviral transduction, cell proliferation assays, wound healing assays, Matrigel invasion assays, Western blotting, flow cytometry and confocal image analysis were carried out as described previously (Teng, Y., et al. Br. J. Cancer 103:1066-1075 (2010); Teng, Y., et al. Int. J. Cancer 129:2825-2835 (2011); Teng, Y., et al. Oncogene 33:203-211 (2014); Teng, Y., et al. J. Biol. Chem. 287:10051-10059 (2012); Teng, Y., et al. Carcinogenesis […] (2013); Teng, Y. et al. Oncogene Mar 30 (2015)).

[7] = test system: MDA-MB-231 and PC3 cells; test: Transwell invasion analysis (WAHM peptides); format: cell-based; settings: breast and prostate cells
Description: as §3

[8] = test system: MDA-MB-231 and PC3 cells; test: Phalloidin staining and quantitation of filamentous actin; format: cell-based; settings: 24 hours; for actin stress fibers (phalloidin staining): 10 μM; for fluorescence intensity of phalloidin stained cells: versus DMSO or scrambled peptides
Description: MDA-MB-231 and PC3 cells were seeded (10,000 cells per well) on slides with the Nunc™ Lab-Tek™ II Chamber Slide™ System (Thermo Fisher Scientific) in complete medium overnight and incubated with 10 μM WAHM or scrambled peptides for 24 hours. Cells were then fixed with 3.7% formaldehyde for 15 min and permeabilized with 0.1% Triton X-100 for 10 min and incubated with Texas-red phalloidin (Life technologies) for an additional 30 min to stain actin filaments. Cells were imaged using a Zeiss LSM 410 confocal microscope equipped with ×63 (1.4 numerical aperture) oil objective (Carl Zeiss) as previously described8. To quantitate the filamentous actin, cells were seeded at 2000 cells per well in a 96 well plate and treated with […] or scrambled peptides for 24 hours. Cells were then stained with phalloidin as described above, followed by extensive washings. Phallodin was solubilized with methanol and the supernatant was transferred to a clear-bottom black plate, and the fluorescence was determined using Infinite® M1000 PRO (Tecan). A parallel set of cells was used to determine cell number using the CellTiter-Glo® Luminescent Cell Viability kit from Promega (Madison), according to the manufacturer's parameters. Data from three independent experiments were expressed as mean relative fluorescence units per cell SEM.

[9] = molecular target: T2, WASF3-CYFIP1 complex (Homo sapiens, UniProt Q7L576); test: IP of WASF3: presence of CYFIP1 in the immunocomplex; format: cell-based; settings: MDA-MB-231 cells treated with the SPs
T2 construct: endogenous in cells; host or cells: MDA-MB-231
Description: as §2

[10] = test system: MMP-9; test: MMP-9 secretion in culture supernatant by ELISA; format: cell-based, Human; settings: MDA-MB-231 and PC3 cells, 24 hours, compared with scrambled controls
Description: After incubation with WAHM or scrambled peptides for 24 hours, MDA-MB-231 and PC3 cell supernatants were recovered and centrifuged at 1000 g at 4° C. for 20 min. MMP-9 levels in supernatants were measured using the Human MMP-9 Quantikine® ELISA kit (R&D Systems) and microplate reader at 450 nm.

[11] = test system: KISS1; test: Western blot of KISS1 levels; format: cell-based; settings: MDA-MB-231 cells, compared with scrambled peptides
Description: as §3

[12] = test system: WASF3; test: Western blot of WASF3 protein levels after WAHM treatment; format: cell-based; settings: for WASF3 levels in serum-starved cells: MDA-MB-231 and PC3 cells starved overnight, then treated for 4 hours; for intracellular levels of either WASF3 or CYFIP1: MDA-MB-231 cells; for WASF3 protein levels: MDA-MB-231 cells in serum, 2 to 24 hours
Description: as §3

[13] = test system: MDA-MB-231 and PC3 cells; test: MTS cell proliferation assay; format: cell-based; settings: 10 μM over 24 hours
Description: as §3

[14] = test system: WASF3; test: IP analysis of WASF3 phosphorylation; format: cell-based; settings: for WASF3 phosphorylation levels: MDA-MB-231 cells, same effect in PC3; for suppression of WASF3 phosphorylation compared with 17-AAG: comparison with HSP90 inhibitor 17-AAG
Description: as §2

T1 sequence (Q7L576 whole entry): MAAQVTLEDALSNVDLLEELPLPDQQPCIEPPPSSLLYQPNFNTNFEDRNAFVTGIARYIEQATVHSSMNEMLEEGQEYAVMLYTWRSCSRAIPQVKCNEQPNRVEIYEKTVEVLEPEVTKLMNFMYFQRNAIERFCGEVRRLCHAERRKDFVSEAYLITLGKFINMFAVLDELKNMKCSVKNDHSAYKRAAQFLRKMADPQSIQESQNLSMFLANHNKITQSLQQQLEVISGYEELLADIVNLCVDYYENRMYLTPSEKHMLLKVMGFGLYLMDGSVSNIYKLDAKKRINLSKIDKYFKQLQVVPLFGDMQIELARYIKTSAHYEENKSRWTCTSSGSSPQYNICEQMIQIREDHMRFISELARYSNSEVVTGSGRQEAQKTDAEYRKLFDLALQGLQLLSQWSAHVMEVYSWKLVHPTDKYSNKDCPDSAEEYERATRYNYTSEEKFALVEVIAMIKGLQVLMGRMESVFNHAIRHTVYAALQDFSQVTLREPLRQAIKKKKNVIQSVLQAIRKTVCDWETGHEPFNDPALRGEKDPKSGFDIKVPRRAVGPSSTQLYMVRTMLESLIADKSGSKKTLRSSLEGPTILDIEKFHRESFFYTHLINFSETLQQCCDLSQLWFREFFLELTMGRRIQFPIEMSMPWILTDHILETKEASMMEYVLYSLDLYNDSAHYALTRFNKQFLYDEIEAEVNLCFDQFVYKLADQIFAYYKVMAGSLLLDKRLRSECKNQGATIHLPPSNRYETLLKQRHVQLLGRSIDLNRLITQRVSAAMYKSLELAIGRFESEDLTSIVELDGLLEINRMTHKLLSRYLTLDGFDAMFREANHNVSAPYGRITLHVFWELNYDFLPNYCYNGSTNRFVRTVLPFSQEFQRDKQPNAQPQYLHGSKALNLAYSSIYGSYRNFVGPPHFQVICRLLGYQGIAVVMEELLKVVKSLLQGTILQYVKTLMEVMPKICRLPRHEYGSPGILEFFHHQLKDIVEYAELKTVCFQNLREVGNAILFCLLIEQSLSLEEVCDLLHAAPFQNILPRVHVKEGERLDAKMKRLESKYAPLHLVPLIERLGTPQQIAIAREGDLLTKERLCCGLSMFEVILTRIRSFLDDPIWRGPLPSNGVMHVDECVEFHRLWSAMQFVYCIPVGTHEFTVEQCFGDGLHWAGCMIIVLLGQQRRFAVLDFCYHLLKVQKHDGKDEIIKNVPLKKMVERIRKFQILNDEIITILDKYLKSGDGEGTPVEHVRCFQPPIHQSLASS
T2 sequence (Q7L576 whole entry): as above
T2 sequence (Q9Y2A7 2-1128 partner limits assumed): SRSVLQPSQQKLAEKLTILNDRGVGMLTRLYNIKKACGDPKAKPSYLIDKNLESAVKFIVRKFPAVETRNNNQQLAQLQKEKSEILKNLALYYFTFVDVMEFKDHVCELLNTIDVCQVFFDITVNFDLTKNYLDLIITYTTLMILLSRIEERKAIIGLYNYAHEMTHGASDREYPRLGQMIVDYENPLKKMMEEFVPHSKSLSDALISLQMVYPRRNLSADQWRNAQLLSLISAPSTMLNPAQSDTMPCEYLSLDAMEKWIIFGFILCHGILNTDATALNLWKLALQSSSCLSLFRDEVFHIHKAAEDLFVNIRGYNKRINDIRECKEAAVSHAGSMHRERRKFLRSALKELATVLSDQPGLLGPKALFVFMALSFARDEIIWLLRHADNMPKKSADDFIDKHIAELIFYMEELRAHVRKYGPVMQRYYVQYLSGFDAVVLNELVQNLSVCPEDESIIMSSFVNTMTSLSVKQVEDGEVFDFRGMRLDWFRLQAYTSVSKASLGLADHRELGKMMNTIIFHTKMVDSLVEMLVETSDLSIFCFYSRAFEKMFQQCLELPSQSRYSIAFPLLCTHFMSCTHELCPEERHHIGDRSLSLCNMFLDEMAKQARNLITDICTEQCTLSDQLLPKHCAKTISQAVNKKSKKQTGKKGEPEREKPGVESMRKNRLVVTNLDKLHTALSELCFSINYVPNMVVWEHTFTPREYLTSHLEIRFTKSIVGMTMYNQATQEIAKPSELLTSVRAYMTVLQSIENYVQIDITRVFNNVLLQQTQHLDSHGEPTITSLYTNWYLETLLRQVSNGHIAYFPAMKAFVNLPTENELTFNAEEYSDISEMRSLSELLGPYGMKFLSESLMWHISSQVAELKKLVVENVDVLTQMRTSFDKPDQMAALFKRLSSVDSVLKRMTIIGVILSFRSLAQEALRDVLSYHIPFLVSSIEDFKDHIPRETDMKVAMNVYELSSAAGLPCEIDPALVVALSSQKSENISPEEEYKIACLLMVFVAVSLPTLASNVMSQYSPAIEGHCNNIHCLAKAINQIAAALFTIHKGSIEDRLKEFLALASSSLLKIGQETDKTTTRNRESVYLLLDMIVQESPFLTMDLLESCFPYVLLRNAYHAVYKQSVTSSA

**Q.** “ELXSSIXDFKDHK (EL[S5]SSI[S5]DFKDHK-NH2; staple 3-7) [WANT2, WASF3-NCKAP1 Target stapled peptide; X is (S)-2-(4′-pentenyl)alanine]” was tested. Which invasion potential [1] did it give?
**A.** no significant effect on invasion potential

**Q.** For `CCN(CC)CCCC(C)Nc1nc(C)cc(Nc2ccc3nc(C)cc(N)c3c2)n1` (stereo not drawn) [NSC23766], which “invasion potential in cells expressing NCKAP1” value [2] is on record?
**A.** significant reduction in invasion

**Q.** And the “invasion potential in cells expressing NCKAP1” value ([2]; listed as NSC23677)?
**A.** significant reduction of invasion potential

**Q.** What about the invasion [3] of the same compound?
**A.** dose-dependent reduction in invasion potential

**Q.** And the “protein levels of either WASF3, NCKAP1 or RAC1” value [4]?
**A.** without affecting; also recorded: does not affect protein levels

**Q.** “LEK*TNS*LAKIIRQL (LEK[S5]TNS[S5]LAKIIRQL-NH2; staple 4-8; not fully specified (N-terminus)) [WAHM1, WASF Helix Mimic stapled peptide; * is (S)-2-(4′-pentenyl)alanine that forms the staple]” was tested. Which “CYFIP1 in the pull down complex” value [5] did it give?
**A.** CYFIP1 was present in the pull down complex; also recorded: CYFIP1 was shown to interact

**Q.** What about the “migration potential / cell motility” value [6] of the same compound?
**A.** reduced migration potential; also recorded: significant reduction in cell motility

**Q.** And the “effect on invasion (in words)” value [7]?
**A.** significantly suppresses invasion

**Q.** What about the “actin stress fibers (phalloidin staining)” value [8] of the same compound?
**A.** increase in both the number and thickness of the actin stress fibers

**Q.** And the “fluorescence intensity of phalloidin stained cells” value [8]?
**A.** increased intensity

**Q.** What about the “suppression of invasion, WAHM1 compared with WANT3” value [1] of the same compound?
**A.** comparable suppression of invasion

**Q.** And the “CYFIP1 in WASF3 immunocomplex” value [9]?
**A.** CYFIP1 was not present in the immunocomplex

**Q.** And the “secreted MMP9 levels” value [10]?
**A.** remarkable reduction in secreted MMP9 levels; also recorded: significantly reduced MMP9 levels

**Q.** And the KISS1 protein levels [11]?
**A.** increased KISS1 levels; also recorded: KISS1 levels increase

**Q.** What about the “WASF3 levels in serum-starved cells” value [12] of the same compound?
**A.** reduced below detectable levels

**Q.** And the “intracellular levels of either WASF3 or CYFIP1” value [12]?
**A.** did not affect

**Q.** And the WASF3 protein levels [12]?
**A.** WASF3 protein levels were not affected; also recorded: without a reduction in WASF3 protein levels; also recorded: no reduction in WASF3 protein levels

**Q.** What about the “cell proliferation (MTS)” value [13] of the same compound?
**A.** no significant difference in cell proliferation

**Q.** What about the WASF3 phosphorylation levels [14] of the same compound?
**A.** dramatic decrease in WASF3 phosphorylation levels; also recorded: reduction in WASF3 phosphorylation

**Q.** And the “suppression of WASF3 phosphorylation compared with 17-AAG” value [14]?
**A.** more efficient

**Q.** `C=CCNC1=C2C[C@@H](C)C[C@H](OC)[C@H](O)[C@@H](C)/C=C(\C)[C@H](OC(N)=O)[C@@H](OC)/C=C\C=C(/C)C(=O)NC(=CC1=O)C2=O` [17-AAG, reference compound] was tested. Which WASF3 phosphorylation levels [14] did it give?
**A.** reduced WASF3 phosphoactivation

**Q.** Which invasion potential [1] does the source give for “KHCAXTISXAVNK (KHCA[S5]TIS[S5]AVNK-NH2; staple 5-9) [WANT1, WASF3-NCKAP1 Target stapled peptide; X is (S)-2-(4′-pentenyl)alanine]” here?
**A.** no significant effect on invasion potential

**Q.** “LEKKTN*TLA*IIRQL (LEKKTN[S5]TLA[S5]IIRQL-NH2; staple 7-11; not fully specified (N-terminus)) [WAHM2, WASF Helix Mimic stapled peptide; * is (S)-2-(4′-pentenyl)alanine that forms the staple]” was tested. Which “CYFIP1 in the pull down complex” value [5] did it give?
**A.** CYFIP1 was present in the pull down complex; also recorded: CYFIP1 was shown to interact

**Q.** And the “migration potential / cell motility” value [6]?
**A.** reduced migration potential; also recorded: significant reduction in cell motility

**Q.** And the “effect on invasion (in words)” value [7]?
**A.** significantly suppresses invasion

**Q.** What about the “actin stress fibers (phalloidin staining)” value [8] of the same compound?
**A.** increase in both the number and thickness of the actin stress fibers

**Q.** And the “fluorescence intensity of phalloidin stained cells” value [8]?
**A.** increased intensity

**Q.** And the “CYFIP1 in WASF3 immunocomplex” value [9]?
**A.** CYFIP1 was not present in the immunocomplex

**Q.** What about the “secreted MMP9 levels” value [10] of the same compound?
**A.** remarkable reduction in secreted MMP9 levels; also recorded: significantly reduced MMP9 levels

**Q.** What about the KISS1 protein levels [11] of the same compound?
**A.** increased KISS1 levels; also recorded: KISS1 levels increase

**Q.** What about the “WASF3 levels in serum-starved cells” value [12] of the same compound?
**A.** reduced below detectable levels

**Q.** And the “intracellular levels of either WASF3 or CYFIP1” value [12]?
**A.** did not affect

**Q.** And the WASF3 protein levels [12]?
**A.** WASF3 protein levels were not affected; also recorded: without a reduction in WASF3 protein levels; also recorded: no reduction in WASF3 protein levels

**Q.** What about the “cell proliferation (MTS)” value [13] of the same compound?
**A.** no significant difference in cell proliferation

**Q.** And the WASF3 phosphorylation levels [14]?
**A.** dramatic decrease in WASF3 phosphorylation levels; also recorded: reduction in WASF3 phosphorylation

**Q.** And the “suppression of WASF3 phosphorylation compared with 17-AAG” value [14]?
**A.** more efficient
